Measurements: patent US20260191849A1, “PHARMACEUTICAL COMPOSITION FOR TREATMENT OF CANCER” (WIGEN BIOMEDICINE TECHNOLOGY (SHANGHAI) CO., LTD., priority 2022, published 2026)
Read-outs that look alike come from different tables or passages of the source.

Tests used:
[1] = tested on: HT29 cells; experiment: Combined use of compound 257 with PLK1 inhibitor on HT29 cell viability, 72 h (Biological Example 5); format: cell-based; details: for IC50: Homo sapiens, HT-29, 72 h, HT29 cells
Description: HT29 cells were seeded on a 384-well plate at 3000 cells/well. After overnight adherence culture, DMSO or compound 257 serially diluted in a 1:5 ratio from 5 μM and a PLK1 inhibitor with a specified concentration were added. The cell viability was assessed 72 h after dosing by measuring the intracellular ATP content. The inhibition percentages of viable cells by the compounds were calculated by comparing with the DMSO group, and the IC50 values were also calculated.

[2] = tested on: HT29 cells; experiment: Combined use of compound 257 with PLK1 inhibitor (CYC140, TAK-960) on HT29 cell viability, 168 h (Biological Example 9); format: cell-based; details: for Maximum inhibition rate / Minimum inhibition rate / IC50 / inhibition: HT29 cells; for IC50 / inhibition: Homo sapiens, HT-29, 168 h
Description: HT29 cells were seeded on a 384-well plate at 3000 cells/well. After overnight adherence culture, DMSO or compound 257 serially diluted in a 1:5 ratio from 400 nM and a PLK1 inhibitor with a specified concentration were added. The cell viability was assessed 168 h after dosing by measuring the intracellular ATP content. The inhibition percentages of viable cells by the compounds were calculated by comparing with the DMSO group, and the IC50 values were also calculated.

[3] = tested on: HT29 cells; experiment: Combined use of compound 257 with Aurora B inhibitor on HT29 cell viability, 72 h (Biological Example 11); format: cell-based; details: for IC50: Homo sapiens, HT-29, 72 h, HT29 cells
Description: HT29 cells were seeded on a 384-well plate at 3000 cells/well. After overnight adherence culture, DMSO or compound 257 serially diluted in a 1:5 ratio from 5 μM and an Aurora B inhibitor with a specified concentration were added. The cell viability was assessed 72 h after dosing by measuring the intracellular ATP content. The inhibition percentages of viable cells by the compounds were calculated by comparing with the DMSO group, and the IC50 values were also calculated.

[4] = tested on: HCT116 cells; experiment: Combined use of compound 257 with Aurora B inhibitor on HCT116 cell viability, 72 h (Biological Example 12); format: cell-based
Description: HCT116 cells were seeded on a 384-well plate at 3000 cells/well. After overnight adherence culture, DMSO or compound 257 serially diluted in a 1:5 ratio from 5 μM and an Aurora B inhibitor with a specified concentration were added. The cell viability was assessed 72 h after dosing by measuring the intracellular ATP content. The inhibition percentages of viable cells by the compounds were calculated by comparing with the DMSO group, and the IC50 values were also calculated.

[5] = tested on: HT29 subcutaneous xenograft tumors; experiment: In vivo pharmacodynamic study of combination therapy, HT29 subcutaneous xenograft tumor model of mice (Biological Example 14); design: species or system BALB/c nude mice
Source text: BALB/c nude mice were each inoculated subcutaneously with 5×10^6 HT29 cells on the left dorsal side. After the tumors grew to 100-150 mm^3, the mice were randomly divided into the following groups for intragastric administration once daily for 14 consecutive days: group 1: vehicle control group; group 2: AMG650 (50 mpk, PO, QD); group 3: compound 714 (50 mpk, PO, QD); group 4: AMG650 (50 mpk, PO, QD)+Onvasertib (20 mpk, PO, QD); group 5: compound 714 (50 mpk, PO, QD)+Onvasertib (20 mpk, PO, QD); and group 6: Onvasertib (20 mpk, PO, QD). The administration to all the groups was stopped on day 15, and the tumor growth continued to be observed until day 21. The tumor volume was measured twice weekly and at the end of administration. […]

[6] = tested on: HT29 subcutaneous xenograft tumors; experiment: In vivo pharmacodynamic study, HT29 subcutaneous xenograft tumor model of mice (Biological Example 3); design: species or system BALB/c nude mice; details: 80 mg/kg intragastric once daily, day 28
Description: BALB/c nude mice were each inoculated subcutaneously with 5×10^6 HT29 cells on the left dorsal side. After the tumors grew to 100-150 mm^3, the mice were randomly divided into the following groups for intragastric administration once daily: group 1: vehicle control group; group 2: compound 661 (80 mg/kg); group 3: compound 669 (80 mg/kg); group 4: compound 677 (80 mg/kg); group 5: compound 714 (80 mg/kg); group 6: compound 727 (80 mg/kg); group 7: compound 740 (80 mg/kg); and group 8: AMG65 (80 mg/kg). The tumor volume was measured twice weekly and at the end of administration. […].

[7] = PO QD 14 days, AMG650/714 50 mpk, Onvasertib 20 mpk, day 15
[8] = PO QD 14 days, AMG650/714 50 mpk, Onvasertib 20 mpk, day 21, after stop of administration

Structure (SMILES): COc1ccc(NC(=O)c2ccc(NS(=O)(=O)CCO)cc2N2CCC3(CC2)CC3)nc1N1CCC(F)(F)CC1 [Compound 257]
- IC50 ([1]; BI 2536 0 nM): 13.5 nM
- IC50 ([1]; BI 2536 1.25 nM): 9.9 nM
- IC50 ([1]; BI 2536 2.5 nM): 6.2 nM
- IC50 ([1]; BI 2536 5 nM): 2 nM
- IC50 ([1]; BI 2536 10 nM): 0.6 nM
- IC50 ([1]; GSK461364 0 nM): 13.5 nM
- IC50 ([1]; GSK461364 1.25 nM): 14.3 nM
- IC50 ([1]; GSK461364 2.5 nM): 8.8 nM
- IC50 ([1]; GSK461364 5 nM): 3.3 nM
- IC50 ([1]; GSK461364 10 nM): 0.5 nM
- IC50 ([1]; MLN0905 0 nM): 13.1 nM
- IC50 ([1]; MLN0905 12.5 nM): 4.7 nM
- IC50 ([1]; MLN0905 25 nM): 0.5 nM
- IC50 ([1]; Onvansertib 0 nM): 12.7 nM
- IC50 ([1]; Onvansertib 12.5 nM): 5.2 nM
- IC50 ([1]; Onvansertib 25 nM): 0.8 nM
- IC50 ([1]; Rigosertib 0 nM): 14.5 nM
- IC50 ([1]; Rigosertib 12.5 nM): 12.2 nM
- IC50 ([1]; Rigosertib 25 nM): 15.2 nM
- IC50 ([1]; Rigosertib 50 nM): 9.1 nM
- IC50 ([1]; Rigosertib 100 nM): 0.4 nM
- IC50 ([1]; Ro3280 0 nM): 13.6 nM
- IC50 ([1]; Ro3280 12.5 nM): 2.9 nM
- IC50 ([1]; Ro3280 25 nM): 0.4 nM
- IC50 ([1]; Volasertib 0 nM): 13.1 nM
- IC50 ([1]; Volasertib 12.5 nM): 1.1 nM
- IC50 ([1]; Volasertib 25 nM): 0.7 nM
- inhibitory effect on HT-29 cells, combined use with the PLK1 inhibitor compared with monotherapy ([1]; in words): stronger inhibitory effect
- inhibitory effect on HT-29 cells, combined use with the PLK1 inhibitor compared with monotherapy ([2]; CYC140 or TAK-960, in words): stronger inhibitory effect
- Maximum inhibition rate ([2]; CYC140 (Plogosertib) 0 nM): 44.2%
- Minimum inhibition rate ([2]; CYC140 (Plogosertib) 0 nM): -7.1%
- Maximum inhibition rate ([2]; TAK-960 0 nM): 57.1%
- Minimum inhibition rate ([2]; TAK-960 0 nM): 1.5%
- IC50 ([2]; CYC140 (Plogosertib) 0 nM): 15.7 nM
- IC50 ([2]; CYC140 (Plogosertib) 1.6 nM): 10.4 nM
- inhibition ([2]; CYC140 (Plogosertib) 1.6 nM, read-out: Maximum inhibition rate): 80.3%
- inhibition ([2]; CYC140 (Plogosertib) 1.6 nM, read-out: Minimum inhibition rate): -0.7%
- IC50 ([2]; CYC140 (Plogosertib) 8 nM): 3.1 nM
- inhibition ([2]; CYC140 (Plogosertib) 8 nM, read-out: Maximum inhibition rate): 90.9%
- inhibition ([2]; CYC140 (Plogosertib) 8 nM, read-out: Minimum inhibition rate): 0.4%
- IC50 ([2]; TAK-960 0 nM): 14 nM
- IC50 ([2]; TAK-960 8 nM): 13.1 nM
- inhibition ([2]; TAK-960 8 nM, read-out: Maximum inhibition rate): 86.1%
- inhibition ([2]; TAK-960 8 nM, read-out: Minimum inhibition rate): 7.5%
- IC50 ([2]; TAK-960 40 nM): 2.4 nM
- inhibition ([2]; TAK-960 40 nM, read-out: Maximum inhibition rate): 93.6%
- inhibition ([2]; TAK-960 40 nM, read-out: Minimum inhibition rate): -4%
- IC50 ([3]; Barasertib 0 nM): 13.9 nM
- IC50 ([3]; Barasertib 20 nM): 7.3 nM
- IC50 ([3]; Barasertib 100 nM): 4.2 nM
- IC50 ([3]; Barasertib 500 nM): 3.3 nM
- IC50 ([3]; SP-96 0 nM): 14.5 nM
- IC50 ([3]; SP-96 20 nM): 16.1 nM
- IC50 ([3]; SP-96 100 nM): 14.5 nM
- IC50 ([3]; SP-96 500 nM): 5.8 nM
- inhibitory effect on HT-29 cells, combined use with the Aurora B inhibitor compared with monotherapy ([3]; in words): stronger inhibitory effect
- IC50 ([4]; HCT116 cells, Barasertib 0 nM): > 10000 nM
- IC50 ([4]; HCT116 cells, Barasertib 10 nM): > 10000 nM
- IC50 ([4]; HCT116 cells, Barasertib 100 nM): > 10000 nM
- IC50 ([4]; Homo sapiens, HCT-116, HCT116 cells, Barasertib 1000 nM): > 10000 nM
- anti-proliferative activity against HCT116 cells, monotherapy ([4]; in words): did not exhibit anti-proliferative activity
- synergistic effect on HCT116 cell viability, combined use with the Aurora B inhibitor ([4]; in words): no significant synergistic effect

Structure (SMILES): Cc1cc(NC(=O)c2ccc(NS(=O)(=O)CCO)cc2N2CCC3(CC2)CC3)nc(N2CCC(F)(F)CC2)n1 [AMG650]
- Tumor volume on day 1 of administration ([5]; PO QD 14 days, AMG650/714 50 mpk, Onvasertib 20 mpk, day 1 (baseline)): 132 mm^3
- TGI on day 15 [5, 7]: 115%
- Tumor volume on day 15 of administration [5, 7]: 49 mm^3
- TGI on day 21 [5, 8]: 100%
- Tumor volume on day 21 of administration [5, 8]: 126 mm^3
- tumor inhibitory effect, combined use with the PLK1 inhibitor Onvasertib compared with monotherapy ([5]; combined with Onvasertib, in words): stronger tumor inhibitory effect
- therapeutic efficacy of monotherapy in HT29-bearing mice ([5]; monotherapy, in words): able to inhibit tumor growth
- TGI [6]: 64%
